# Patent US6432922B1 (Corvas International, Inc., priority 1998, dated 2002)
# Where two headings read alike, the source gives them in different places. Starred links: 1 amine or outer side, 2 acyl side, 3 side chain; linkers in the order of their positions; H or OH if unused. Non-standard residues stand in square brackets, D forms with d. Residues, ends and D or L forms follow the SMILES beside them. *: point of attachment. Fmoc = O=C(OCC1c2ccccc2-c2ccccc21)*; d(aThr) = C[C@@H](O)[C@@H](N)C(=O)O; Hydrocinnamoyl = O=C(CCc1ccccc1)*; NMeA = CN[C@@H](C)C(=O)O; Pra = C#CC[C@H](N)C(=O)O; dDap = NC[C@@H](N)C(=O)O; Aze = O=C(O)[C@@H]1CCN1; Cbz = O=C(OCc1ccccc1)*; CO = O=C([*:1])[*:2]; NHBn = c1ccc(CN*)cc1; Sar = CNCC(=O)O; Moc = COC(=O)*
# Columns and labels:
# Urokinase (Abbokinase) = Urokinase (Abbokinase) (Homo sapiens, UniProt P00749); assay: Urokinase chromogenic substrate (S-2444) IC50 assay
# Procedure: The buffer used for all assays was HBSA (10 mM HEPES, pH 7.5, 150 mM sodium chloride, 0.1% bovine serum albumin).
# The initial velocity of chromogenic substrate hydrolysis was measured by the change in absorbance at 405 nm using a Thermo Max® Kinetic Microplate Reader over a 5 minute period in which less than 5% of the added substrate was utilized.
# The assay buffer was HBS (10mM HEPES, 150mM sodium chloride pH 7.4) with 0.1% BSA.
# Human rt-PA (Activase) = target: T1, Human rt-PA (Activase) (Homo sapiens, UniProt P00750); assay: Recombinant tissue plasminogen activator (rt-PA) chromogenic assay; format: biochemical; conditions: 30 minute preincubation, HBSA buffer; read-out: tPA IC50
# T1 construct: purchased Genentech Inc
# T1 sequence (P00750 36-562): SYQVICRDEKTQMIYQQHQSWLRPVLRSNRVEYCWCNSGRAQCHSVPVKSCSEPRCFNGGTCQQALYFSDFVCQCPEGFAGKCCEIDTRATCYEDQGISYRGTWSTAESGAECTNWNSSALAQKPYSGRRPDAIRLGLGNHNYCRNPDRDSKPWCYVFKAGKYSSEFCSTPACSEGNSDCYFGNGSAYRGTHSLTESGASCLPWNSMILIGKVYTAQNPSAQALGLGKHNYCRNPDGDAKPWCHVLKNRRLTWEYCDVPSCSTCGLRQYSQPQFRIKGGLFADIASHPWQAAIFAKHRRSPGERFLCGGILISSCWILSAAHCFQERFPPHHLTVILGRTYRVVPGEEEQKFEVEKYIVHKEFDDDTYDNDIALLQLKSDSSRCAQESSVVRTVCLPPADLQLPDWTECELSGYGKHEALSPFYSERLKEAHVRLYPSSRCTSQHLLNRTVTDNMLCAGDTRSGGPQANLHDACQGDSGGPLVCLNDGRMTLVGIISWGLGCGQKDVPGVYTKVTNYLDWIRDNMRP
# Procedure: rt-PA catalytic activity was determined using the substrate, Pefachrome t-PA (CH3SO2-D-hexahydrotyrosine-glycyl-L-arginine-p-nitroaniline, obtained from Pentap harm Ltd.). The substrate was made up in deionized water followed by dilution in HBSA prior to the assay in which the final concentration was 500 micromolar (about 3-times Km). Human rt-PA (Activase®) was obtained from Genentech Inc. The enzyme was reconstituted in deionized water and diluted into HBSA prior to the assay in which the final concentration was 1.0 nM.
# human plasmin = target: T2, human plasmin (Homo sapiens, UniProt P00747); assay: Plasmin chromogenic substrate (S-2366) assay; format: biochemical; conditions: 30 minute preincubation, HBSA buffer
# T2 construct: purchased Enzyme Research Laboratories, Inc
# T2 sequence (P00747 581-810 limits assumed): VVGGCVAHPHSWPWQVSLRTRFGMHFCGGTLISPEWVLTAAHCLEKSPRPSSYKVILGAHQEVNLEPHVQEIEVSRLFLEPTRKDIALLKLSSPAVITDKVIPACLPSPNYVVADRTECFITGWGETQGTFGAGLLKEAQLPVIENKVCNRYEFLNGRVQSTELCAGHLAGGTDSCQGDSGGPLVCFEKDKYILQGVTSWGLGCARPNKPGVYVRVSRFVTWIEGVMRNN
# T2 sequence (P00747 97-580 partner limits assumed): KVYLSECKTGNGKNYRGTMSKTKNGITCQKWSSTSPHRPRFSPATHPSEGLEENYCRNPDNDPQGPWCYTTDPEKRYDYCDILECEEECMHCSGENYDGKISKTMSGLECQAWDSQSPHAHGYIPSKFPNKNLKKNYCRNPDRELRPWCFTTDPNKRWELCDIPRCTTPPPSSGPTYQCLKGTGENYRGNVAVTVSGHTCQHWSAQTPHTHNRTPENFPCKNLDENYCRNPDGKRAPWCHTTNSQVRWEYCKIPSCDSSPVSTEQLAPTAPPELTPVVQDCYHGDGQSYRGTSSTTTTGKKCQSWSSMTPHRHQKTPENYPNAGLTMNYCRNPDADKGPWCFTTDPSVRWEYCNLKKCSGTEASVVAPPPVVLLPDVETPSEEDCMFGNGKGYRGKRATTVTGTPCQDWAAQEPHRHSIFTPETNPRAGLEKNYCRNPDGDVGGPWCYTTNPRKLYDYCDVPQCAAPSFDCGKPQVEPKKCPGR
# Procedure: The substrate was made up in deionized water followed by dilution in HBSA prior to the assay in which the final concentration was 300 micromolar (about 2.5-times Km). Purified human plasmin was obtained from Enzyme Research Laboratories, Inc. The enzyme was diluted into HBSA prior to assay in which the final concentration was 1.0 nM.
# [1] = read-out: uPA IC50, 30 minute preincubation, HBSA buffer
Compound,IC50 (Urokinase (Abbokinase)) [nM],IC50 (Human rt-PA (Activase)) [nM],IC50 (human plasmin) [nM],IC50 (Urokinase (Abbokinase); [1]) [nM]
"C[C@H](NC(=O)[C@H](NC(=O)OCc1ccccc1)[C@@H](C)O)C(=O)N[C@H](C=O)CCCNC(=N)N [Compound 19, benzyloxycarbonyl-D-allothreonyl-alanyl-argininal] (Cbz-[d(aThr)]-Ala-Arg-aldehyde)",< 100,> 2500,250 to 2500,
"C[C@H](NC(=O)[C@@H](CO)NCCCc1ccccc1)C(=O)N[C@H](C=O)CCCNC(=N)N [Compound 32, N-α-(3-Phenylpropyl)-D-seryl-alanyl-argininal]",,> 2500,250 to 2500,< 100
"C[C@H](NC(=O)[C@@H](CO)NC(=O)NCc1ccccc1)C(=O)N[C@H](C=O)CCCNC(=N)N [Compound 38, benzylazacarbonyl-D-seryl-alanyl-argininal] ({NHBn-CO}-[dS]-Ala-Arg-aldehyde)",100 to 250,> 2500,> 2500,
"C[C@H](NC(=O)[C@@H](CO)NS(=O)(=O)CCc1ccccc1)C(=O)N[C@H](C=O)CCCNC(=N)N [Compound 47, 2-phenylethylsulfonyl-D-seryl-alanyl-argininal]",< 100,> 2500,250 to 2500,
"CSC[C@H](NC(=O)[C@@H](CO)NC(=O)OCc1ccccc1)C(=O)N[C@H](C=O)CCCNC(=N)N [Compound 15, benzyloxycarbonyl-D-seryl-S-methylcysteinyl-argininal] (Cbz-[dS]-Cys(Me)-Arg-aldehyde)",100 to 250,> 2500,,
"C[C@H](NC(=O)[C@@H](CO)NC(=O)Oc1ccc2ccccc2c1)C(=O)N[C@H](C=O)CCCNC(=N)N [Compound 4, 2-naphthyloxy-carbonyl-D-seryl-alanyl-argininal]",< 100,> 2500,,
"C[C@H](NC(=O)[C@@H](CNC(=O)CCc1ccccc1)NC(=O)OCc1ccccc1)C(=O)N[C@H](C=O)CCCNC(=N)N [Compound 41, N-α-benzyloxycarbonyl-N-β-2-phenylethylcarbonyl-D-2,3-diaminopropionyl-alanyl-argininal] (Cbz-[dDap](Hydrocinnamoyl)-Ala-Arg-aldehyde)",250 to 2500,> 2500,250 to 2500,
"C#CC[C@H](NC(=O)[C@@H](CO)NC(=O)OCc1ccccc1)C(=O)N[C@H](C=O)CCCNC(=N)N [Compound 51, benzyloxycarbonyl-D-seryl-L-propargylglycyl-argininal] (Cbz-[dS]-[Pra]-Arg-aldehyde)",< 100,> 2500,250 to 2500,
"C[C@H](NC(=O)[C@H](CO)NC(=O)OCc1ccccc1)C(=O)N[C@H](C=O)CCCNC(=N)N [Compound 23, benzyloxycarbonyl-seryl-alanyl-argininal] (Cbz-Ser-Ala-Arg-aldehyde)",250 to 2500,> 2500,,
"CCCCOC(=O)N[C@H](CO)C(=O)N[C@@H](C)C(=O)N[C@H](C=O)CCCNC(=N)N [Compound 9, n-butyloxycarbonyl-D-seryl-alanyl-argininal]",< 100,> 2500,,
"C[C@H](NC(=O)[C@@H](CO)NS(=O)(=O)Cc1ccccc1)C(=O)N[C@H](C=O)CCCN=C(N)N [Compound 29, Benzylsulfonyl-D-Ser-Ala-Arg-al]",,> 2500,250 to 2500,< 100
"N=C(N)NCCC[C@@H](C=O)NC(=O)[C@@H]1CCN1C(=O)[C@@H](CO)NC(=O)OCc1ccccc1 [Compound 12, benzyloxycarbonyl-D-seryl-L-azetidine-2-carbonyl-argininal] (Cbz-[dS]-[Aze]-Arg-aldehyde)",< 100,> 2500,250 to 2500,
"C[C@H](O)[C@@H](NC(=O)OCc1ccccc1)C(=O)N1CCC[C@H]1C(=O)N[C@H](C=O)CCCNC(=N)N [Compound 26, benzyloxycarbonyl-D-threonyl-prolyl-argininal] (Cbz-[dT]-Pro-Arg-aldehyde)",100 to 250,> 2500,,
benzyloxycarbonyl-D-seryl-L-β-cyanoalanine-argininal [Compound 46],,> 2500,250 to 2500,< 100
"CC(C)COC(=O)N[C@H](CO)C(=O)N[C@@H](C)C(=O)NC(CCCN=C(N)N)C(=O)C(=O)NCCc1ccccc1 (stereo partly drawn) [Compound 30, i-butoxycarbonyl-D-Ser-Ala-Arg-CO-phenethylamide]",,> 2500,250 to 2500,100 to 250
"CCCCC(CC)COC(=O)N[C@H](CO)C(=O)N[C@@H](C)C(=O)N[C@H](C=O)CCCNC(=N)N (stereo partly drawn) [Compound 6, 2-ethylhexyloxy-carbonyl-D-seryl-alanyl-argininal]",< 100,> 2500,,
"N=C(N)NCCC[C@@H](C=O)NC(=O)[C@H](CO)NC(=O)[C@@H](CO)NC(=O)OCc1ccccc1 [Compound 45, benzyloxycarbonyl-D-seryl-L-seryl-argininal] (Cbz-[dS]-Ser-Arg-aldehyde)",100 to 250,> 2500,250 to 2500,

Compound,IC50 (Urokinase (Abbokinase)) [nM],IC50 (Human rt-PA (Activase)) [nM],IC50 (human plasmin) [nM],IC50 (Urokinase (Abbokinase); [1]) [nM]
CCCC(NC(=O)[C@@H](CO)NC(=O)OCc1ccccc1)C(=O)NC(C=O)CCCNC(=N)N (some centres unmarked) [Compound 16],100 to 250,> 2500,,
"CC1CCC(C(C)C)C(OC(=O)N[C@H](CO)C(=O)N[C@@H](C)C(=O)N[C@H](C=O)CCCNC(=N)N)C1 (single isomer, unassigned; (+)) [Compound 7, (+)menthyloxy-carbonyl-D-seryl-alanyl-argininal]",< 100,> 2500,,
"N=C(N)NCCC[C@@H](C=O)NC(=O)[C@@H]1CCCN1C(=O)[C@@H](CO)NC(=O)OCc1ccccc1 [Compound 11, benzyloxycarbonyl-D-seryl-prolyl-argininal] (Cbz-[dS]-Pro-Arg-aldehyde)",< 100,> 2500,250 to 2500,
CC[C@H](NC(=O)[C@@H](CO)NC(=O)OCc1ccccc1)C(=O)N[C@H](C=O)CCCNC(=N)N [Compound 14],< 100,> 2500,,
N=C(N)NCCCC(C=O)NC(=O)CNC(=O)[C@@H](CO)NC(=O)OCc1ccccc1 (some centres unmarked) [Compound 17],100 to 250,> 2500,,
"C[C@H](NC(=O)[C@@H](CO)NC(=O)Oc1ccccc1)C(=O)N[C@H](C=O)CCCNC(=N)N [Compound 5, phenoxycarbonyl-D-seryl-alanyl-argininal]",< 100,> 2500,,
"C[C@H](NC(=O)[C@@H](NC(=O)OCc1ccccc1)[C@@H](C)O)C(=O)N[C@H](C=O)CCCNC(=N)N [Compound 20, benzyloxycarbonyl-threonyl-alanyl-argininal] (Cbz-Thr-Ala-Arg-aldehyde)",100 to 250,> 2500,,
"C[C@@H](O)[C@@H](NC(=O)OCc1ccccc1)C(=O)N(C)[C@@H](C)C(=O)N[C@H](C=O)CCCNC(=N)N [Compound 25, benzyloxycarbonyl-D-allothreonyl-N-methylalanyl-argininal] (Cbz-[d(aThr)]-[NMeA]-Arg-aldehyde)",100 to 250,,,
"N=C(N)NCCCC(C=O)NC(=O)C1CCN1C(=O)C(CO)NS(=O)(=O)c1ccccc1 [Compound 31, benzenesulfonyl-D-seryl-azetidyl-argininal]",,,250 to 2500,< 100
"C[C@H](NC(=O)[C@@H](C)NC(=O)OCc1ccccc1)C(=O)N[C@H](C=O)CCCNC(=N)N [Compound 21, benzyloxycarbonyl-D-alanyl-alanyl-argininal] (Cbz-[dA]-Ala-Arg-aldehyde)",100 to 250,,,
"CN(CC(=O)N[C@H](C=O)CCCNC(=N)N)C(=O)[C@@H](CO)NC(=O)OCc1ccccc1 [Compound 18, benzyloxycarbonyl-D-seryl-sarcosyl-argininal] (Cbz-[dS]-[Sar]-Arg-aldehyde)",250 to 2500,> 2500,,
"CC1CCC(C(C)C)C(OC(=O)N[C@H](CO)C(=O)N[C@@H](C)C(=O)N[C@H](C=O)CCCNC(=N)N)C1 (single isomer, unassigned; (-)) [Compound 3, (−)menthyloxy-carbonyl-D-seryl-alanyl-argininal]",,> 2500,,< 100
N=C(N)NCCC[C@@H](C=O)NC(=O)[C@@H]1CCCCN1C(=O)[C@@H](CO)NC(=O)OCc1ccccc1 [Compound 13],100 to 250,> 2500,,
"C[C@H](NC(=O)[C@H](NC(=O)OCc1ccccc1)[C@H](C)O)C(=O)N[C@H](C=O)CCCNC(=N)N [Compound 22, benzyloxycarbonyl-D-threonyl-alanyl-argininal] (Cbz-[dT]-Ala-Arg-aldehyde)",250 to 2500,> 2500,,
"C[C@H](NC(=O)[C@@H](CO)NC(=O)OCC1c2ccccc2-c2ccccc21)C(=O)N[C@H](C=O)CCCNC(=N)N [Compound 10, Fluorenylmethyloxycarbonyl-D-seryl-alanyl-argininal] (Fmoc-[dS]-Ala-Arg-aldehyde)",< 100,> 2500,,
"C[C@@H](O)[C@@H](NC(=O)OCc1ccccc1)C(=O)N(C)CC(=O)N[C@H](C=O)CCCNC(=N)N [Compound 24, benzyloxycarbonyl-D-allothreonyl-sarcosyl-argininal] (Cbz-[d(aThr)]-[Sar]-Arg-aldehyde)",100 to 250,,,
"COC(=O)N[C@H](CO)C(=O)N[C@@H](C)C(=O)N[C@H](C=O)CCCNC(=N)N [Compound 8, methyloxycarbonyl-D-seryl-alanyl-argininal] (Moc-[dS]-Ala-Arg-aldehyde)",< 100,> 2500,,
